According to ChEMBL document CHEMBL1147994 (Bioorg Med Chem Lett, 2007):

Experiments:
[1] = target: Dipeptidyl peptidase 8 (Homo sapiens, UniProt Q6V1X1); experiment: Inhibition of DPP8
[2] = target: Dipeptidyl peptidase 9 (Homo sapiens, UniProt Q86TI2); experiment: Inhibition of DPP9
[3] = target: Dipeptidyl peptidase 2 (Homo sapiens, UniProt Q9UHL4); experiment: Inhibition of QPP

Measured: IC50

Dipeptidyl peptidase 8, sequence (Q6V1X1 whole entry): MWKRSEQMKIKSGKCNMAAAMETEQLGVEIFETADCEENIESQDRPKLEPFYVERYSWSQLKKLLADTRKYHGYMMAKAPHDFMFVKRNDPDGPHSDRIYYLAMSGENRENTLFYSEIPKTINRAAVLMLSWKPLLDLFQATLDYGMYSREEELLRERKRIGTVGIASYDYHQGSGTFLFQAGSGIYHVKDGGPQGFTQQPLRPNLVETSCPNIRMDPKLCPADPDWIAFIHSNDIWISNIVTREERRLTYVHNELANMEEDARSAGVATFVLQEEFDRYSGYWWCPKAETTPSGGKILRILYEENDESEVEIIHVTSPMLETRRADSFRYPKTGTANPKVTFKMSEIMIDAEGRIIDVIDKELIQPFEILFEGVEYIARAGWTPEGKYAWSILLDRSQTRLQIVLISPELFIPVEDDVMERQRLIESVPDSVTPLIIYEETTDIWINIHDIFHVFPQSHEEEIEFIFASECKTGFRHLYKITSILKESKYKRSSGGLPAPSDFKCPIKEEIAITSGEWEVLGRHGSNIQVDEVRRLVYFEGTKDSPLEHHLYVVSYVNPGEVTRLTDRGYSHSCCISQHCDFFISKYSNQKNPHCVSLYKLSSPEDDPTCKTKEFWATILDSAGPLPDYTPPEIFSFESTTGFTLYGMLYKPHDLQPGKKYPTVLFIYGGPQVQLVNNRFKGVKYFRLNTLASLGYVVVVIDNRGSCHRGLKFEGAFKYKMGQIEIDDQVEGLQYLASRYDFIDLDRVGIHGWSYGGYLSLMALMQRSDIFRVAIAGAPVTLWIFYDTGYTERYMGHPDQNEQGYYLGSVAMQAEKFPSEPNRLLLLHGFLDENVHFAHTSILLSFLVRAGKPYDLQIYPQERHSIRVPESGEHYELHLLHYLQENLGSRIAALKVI
Dipeptidyl peptidase 9, sequence (Q86TI2 whole entry): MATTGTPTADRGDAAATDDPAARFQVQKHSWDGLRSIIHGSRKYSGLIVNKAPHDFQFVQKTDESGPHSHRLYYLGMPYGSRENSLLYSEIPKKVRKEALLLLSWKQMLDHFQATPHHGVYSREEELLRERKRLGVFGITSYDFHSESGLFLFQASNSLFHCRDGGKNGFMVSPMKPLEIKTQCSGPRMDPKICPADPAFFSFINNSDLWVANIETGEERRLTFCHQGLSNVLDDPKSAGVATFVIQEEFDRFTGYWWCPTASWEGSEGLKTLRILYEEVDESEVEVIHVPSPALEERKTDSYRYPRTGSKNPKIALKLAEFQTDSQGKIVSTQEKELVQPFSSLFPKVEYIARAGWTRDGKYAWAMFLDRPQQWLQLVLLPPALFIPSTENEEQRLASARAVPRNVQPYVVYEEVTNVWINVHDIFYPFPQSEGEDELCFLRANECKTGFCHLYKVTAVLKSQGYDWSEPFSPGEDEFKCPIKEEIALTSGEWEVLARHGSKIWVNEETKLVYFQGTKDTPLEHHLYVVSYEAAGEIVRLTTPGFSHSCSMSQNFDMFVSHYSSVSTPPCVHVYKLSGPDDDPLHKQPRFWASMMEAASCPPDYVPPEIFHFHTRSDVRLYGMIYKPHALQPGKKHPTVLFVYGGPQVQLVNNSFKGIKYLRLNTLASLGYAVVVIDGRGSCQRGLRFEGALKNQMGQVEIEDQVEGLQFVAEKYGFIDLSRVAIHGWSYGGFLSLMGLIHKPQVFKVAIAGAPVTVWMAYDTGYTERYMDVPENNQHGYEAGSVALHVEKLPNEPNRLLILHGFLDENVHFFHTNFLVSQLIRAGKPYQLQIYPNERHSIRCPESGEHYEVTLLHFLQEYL

N[C@H]1C[C@H](N2CCn3c(nnc3C(F)(F)F)C2)CC[C@@H]1c1cc(F)c(F)cc1F
> 100 µM: all assays above
